Laboratory results: patent US20230167073A1 (Teijin Pharma Limited, priority 2020, published 2023)

Molecular target: T1, Human TRPC6 (Homo sapiens, UniProt Q9Y210)
T1 construct: expressed in transfected cells
T1 sequence (Q9Y210 1-931): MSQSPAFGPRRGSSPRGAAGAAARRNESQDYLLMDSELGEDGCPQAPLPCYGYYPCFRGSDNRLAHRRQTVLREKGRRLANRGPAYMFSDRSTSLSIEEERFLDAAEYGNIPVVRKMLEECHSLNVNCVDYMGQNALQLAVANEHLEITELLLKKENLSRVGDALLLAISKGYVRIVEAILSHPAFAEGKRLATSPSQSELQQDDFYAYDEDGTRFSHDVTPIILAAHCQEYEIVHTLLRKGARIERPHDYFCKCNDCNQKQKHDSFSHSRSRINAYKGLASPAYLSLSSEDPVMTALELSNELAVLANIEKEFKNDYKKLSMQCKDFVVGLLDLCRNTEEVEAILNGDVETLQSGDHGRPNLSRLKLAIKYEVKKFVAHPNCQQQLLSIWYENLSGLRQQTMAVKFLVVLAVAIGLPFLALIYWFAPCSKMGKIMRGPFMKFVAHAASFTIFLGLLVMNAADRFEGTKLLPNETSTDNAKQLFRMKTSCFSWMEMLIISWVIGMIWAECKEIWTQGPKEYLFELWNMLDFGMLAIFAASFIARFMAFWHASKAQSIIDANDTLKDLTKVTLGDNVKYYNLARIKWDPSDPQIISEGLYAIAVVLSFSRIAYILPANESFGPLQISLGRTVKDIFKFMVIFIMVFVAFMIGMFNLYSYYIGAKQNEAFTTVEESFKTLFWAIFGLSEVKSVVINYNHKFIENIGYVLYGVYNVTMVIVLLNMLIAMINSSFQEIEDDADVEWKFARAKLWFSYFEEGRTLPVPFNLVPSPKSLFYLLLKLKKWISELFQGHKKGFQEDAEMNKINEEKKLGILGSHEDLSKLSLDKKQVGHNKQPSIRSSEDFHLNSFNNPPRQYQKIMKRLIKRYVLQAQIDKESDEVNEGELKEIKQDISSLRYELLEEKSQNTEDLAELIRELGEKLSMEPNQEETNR
Test: Evaluation of TRPC6 channel inhibitory activity (1), FLIPR Calcium 5 Assay Kit, OAG stimulation (Compound Nos. 1-1293)
Type: cell-based
Details: Human TRPC6 stably-expressing cells, OAG 30 μM, FLIPR Calcium 5 Assay Kit; read-out: Inhibitory activity (pIC50 class) (converted)
Summary of the method: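 The FLIPR signal is maximum fluorescence after 30 μM OAG minus minimum before compound, measured in a human TRPC6 stable line loaded with Calcium 5 dye. Compounds were preincubated 20 min. pIC50 came from four-parameter logistic fitting of inhibition rates and is given as symbol ranges.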

IC50 [nM]	SMILES
< 10	Cn1nc(N2CCCCC2)cc1Oc1cc(C#N)ccc1-c1ccc(CC2(N)COC2)cn1 [compound 742, 4-[5-[(3-aminooxetan-3-yl)methyl]pyridin-2-yl]-3-(2-methyl-5-piperidin-1-ylpyrazol-3-yl)oxybenzonitrile]
> 1000	Cn1nc(C2CC2)cc1Oc1cc(C#N)ccc1-n1ncc2c1CCNC2 [compound 777, 3-(5-cyclopropyl-2-methylpyrazol-3-yl)oxy-4-(4,5,6,7-tetrahydropyrazolo[4,3-c]pyridin-1-yl)benzonitrile]
< 10	Cc1nn(C(C)C)cc1Oc1cc(F)ccc1-c1ncc(CCN)cn1 [compound 983, 2-[2-[4-fluoro-2-(3-methyl-1-propan-2-ylpyrazol-4-yl)oxyphenyl]pyrimidin-5-yl]ethanamine]
10 to 1000	N#Cc1ccc(-c2ncc(CN)cn2)c(C(=O)c2cnn(-c3ccccn3)c2)c1 [compound 1038, 4-[5-(aminomethyl)pyrimidin-2-yl]-3-(1-pyridin-2-ylpyrazole-4-carbonyl)benzonitrile]
10 to 1000	Cc1nc(Oc2cc(C#N)ccc2-c2ncc(CCN)cn2)cc(OC2CCC2)n1 [compound 887, 4-[5-(2-aminoethyl)pyrimidin-2-yl]-3-(6-cyclobutyloxy-2-methylpyrimidin-4-yl)oxybenzonitrile]
> 1000	Cn1cc(-c2cc(Oc3cc(C#N)ccc3-c3ncc(CN)cn3)n(C)n2)cn1 [compound 947, 4-[5-(aminomethyl)pyrimidin-2-yl]-3-[2-methyl-5-(1-methylpyrazol-4-yl)pyrazol-3-yl]oxybenzonitrile]
< 10	Cn1nc(C2CCC2)cc1Oc1cc(C#N)ccc1-c1ncc(CCN)cn1 [Compound 272, 4-[5-(2-aminoethyl)pyrimidin-2-yl]-3-(5-cyclobutyl-2-methylpyrazol-3-yl)oxybenzonitrile]
> 1000	Cn1nc(C2CC2)cc1Oc1cc(C#N)ccc1-c1cc(C(=O)N2CCNCC2)ccn1 [compound 552, 3-(5-cyclopropyl-2-methylpyrazol-3-yl)oxy-4-[4-(piperazine-1-carbonyl)pyridin-2-yl]benzonitrile]
< 10	N#Cc1ccc(-c2ccc(C(O)CN)cn2)c(Oc2cc(C3CC3)nn2CC(F)(F)F)c1 (stereo not shown) [compound 370, 4-[5-(2-amino-1-hydroxyethyl)pyridin-2-yl]-3-[5-cyclopropyl-2-(2,2,2-trifluoroethyl)pyrazol-3-yl]oxybenzonitrile]
> 1000	NCCc1cnc(-c2ccc(Cl)cc2Oc2cnn(CC(F)F)c2)nc1 [compound 1022, 2-[2-[4-chloro-2-[1-(2,2-difluoroethyl)pyrazol-4-yl]oxyphenyl]pyrimidin-5-yl]ethanamine]
10 to 1000	Cc1cc(Sc2cc(C#N)ccc2-c2ncc(CCN)cn2)cc(N2CCOCC2)n1 [compound 1260, 4-[5-(2-aminoethyl)pyrimidin-2-yl]-3-(2-methyl-6-morpholin-4-ylpyridin-4-yl)sulfanylbenzonitrile]
< 10	CCN(CC)c1cc(Oc2cc(C#N)ccc2-c2ncc(CCN)cn2)nc(C)n1 [compound 856, 4-[5-(2-aminoethyl)pyrimidin-2-yl]-3-[6-(diethylamino)-2-methylpyrimidin-4-yl]oxybenzonitrile]
< 10	CCOc1cc(Oc2cc(C#N)ccc2-c2ccc([C@H](O)CN)cn2)n(C)n1 [compound 399, 4-[5-[(1S)-2-amino-1-hydroxyethyl]pyridin-2-yl]-3-(5-ethoxy-2-methylpyrazol-3-yl)oxybenzonitrile]
10 to 1000	COCCCCN(C)c1cc(Oc2cc(C#N)ccc2-c2ncc(CCN)cn2)n(C)n1 [compound 838, 4-[5-(2-aminoethyl)pyrimidin-2-yl]-3-[5-[4-methoxybutyl(methyl)amino]-2-methylpyrazol-3-yl]oxybenzonitrile]
> 1000	Cn1nc(C2CC2)cc1Oc1cc(C#N)ccc1-c1ccc(C[C@H](N)C(=O)O)cn1 [compound 612, (2S)-2-amino-3-[6-[4-cyano-2-(5-cyclopropyl-2-methylpyrazol-3-yl)oxyphenyl]pyridin-3-yl]propanoic acid]
< 10	Cc1cc(Oc2cc(C#N)ccc2-c2ccc([C@H](O)CN)cn2)cc(N2CCO[C@@H](C)C2)n1 [compound 529, 4-[5-[(1S)-2-amino-1-hydroxyethyl]pyridin-2-yl]-3-[2-methyl-6-[(2S)-2-methylmorpholin-4-yl]pyridin-4-yl]oxybenzonitrile]

IC50 [nM]	SMILES
< 10	Cn1nc(C2CC2)cc1Oc1cc(C#N)ccc1-c1ncc(NCCN)cn1 [compound 432, 4-[5-(2-aminoethylamino)pyrimidin-2-yl]-3-(5-cyclopropyl-2-methylpyrazol-3-yl)oxybenzonitrile]
10 to 1000	N#Cc1ccc(-c2ncc(CCN)cn2)c(C(=O)c2cnn(-c3ncccn3)c2)c1 [compound 1052, 4-[5-(2-aminoethyl)pyrimidin-2-yl]-3-(1-pyrimidin-2-ylpyrazole-4-carbonyl)benzonitrile]
10 to 1000	COc1cccnc1-c1cc(Oc2cc(C#N)ccc2-c2ccc([C@H](O)CN)cn2)cc(C)n1 [compound 513, 4-[5-[(1S)-2-amino-1-hydroxyethyl]pyridin-2-yl]-3-[2-(3-methoxypyridin-2-yl)-6-methylpyridin-4-yl]oxybenzonitrile]
10 to 1000	Cn1nc(-c2ccccc2)cc1Oc1cc(C#N)ncc1-c1ccc(CCN)cn1 [Compound No. 1277, 5-[5-(2-Aminoethyl)pyridin-2-yl]-4-(2-methyl-5-phenylpyrazol-3-yl)oxypyridine-2-carbonitrile]
< 10	Cn1nc(-c2ccccn2)cc1Oc1cc(C#N)ccc1-c1ccc(CCN)nc1 [Compound 162, 4-[6-(2-aminoethyl)pyridin-3-yl]-3-(2-methyl-5-pyridin-2-ylpyrazol-3-yl)oxybenzonitrile]
> 1000	Cc1cc(Oc2cc(C#N)ccc2-c2ncc(CNCC(N)=O)cn2)cc(-c2ccccn2)n1 [compound 841, 2-[[2-[4-cyano-2-(2-methyl-6-pyridin-2-ylpyridin-4-yl)oxyphenyl]pyrimidin-5-yl]methylamino]acetamide]
< 10	CCN(CC)c1cc(Oc2cc(C#N)ccc2-c2ncc(CCN)cn2)n(C)n1 [compound 656, 4-[5-(2-aminoethyl)pyrimidin-2-yl]-3-[5-(diethylamino)-2-methylpyrazol-3-yl]oxybenzonitrile]
10 to 1000	CCc1c(Oc2cc(C#N)ccc2-c2ncc(CCN)cn2)cnn1CC(C)C [compound 954, 4-[5-(2-aminoethyl)pyrimidin-2-yl]-3-[5-ethyl-1-(2-methylpropyl)pyrazol-4-yl]oxybenzonitrile]
10 to 1000	Cc1nc(-c2cncc(F)c2)cn1Cc1cc(C#N)ccc1-c1ccc(CCN)cn1 [compound 1193, 4-[5-(2-aminoethyl)pyridin-2-yl]-3-[[4-(5-fluoropyridin-3-yl)-2-methylimidazol-1-yl]methyl]benzonitrile]
10 to 1000	N#Cc1ccc(-c2ncc(CCN)cn2)c(C(=O)c2cnn(C3CCOCC3)c2)c1 [compound 1041, 4-[5-(2-aminoethyl)pyrimidin-2-yl]-3-[1-(oxan-4-yl)pyrazole-4-carbonyl]benzonitrile]
> 1000	Cn1nc2c(c1Oc1cc(C#N)ccc1-c1ncc(CN)cn1)COCC2 [compound 679, 4-[5-(aminomethyl)pyrimidin-2-yl]-3-[(2-methyl-6,7-dihydro-4H-pyrano[4,3-c]pyrazol-3-yl)oxy]benzonitrile]
10 to 1000	Cn1nc(-c2ccccn2)cc1Oc1cc(C#N)ccc1-c1cc(CN)cn2cnnc12 [compound 732, 4-[6-(aminomethyl)-[1,2,4]triazolo[4,3-a]pyridin-8-yl]-3-(2-methyl-5-pyridin-2-ylpyrazol-3-yl)oxybenzonitrile]
10 to 1000	Cc1nc(NC(C)C)cc(Oc2cc(C#N)ccc2-c2ncc(CN)cn2)n1 [compound 630, 4-[5-(aminomethyl)pyrimidin-2-yl]-3-[2-methyl-6-(propan-2-ylamino)pyrimidin-4 yl]oxybenzonitrile]
10 to 1000	Cc1nc(Oc2cc(C#N)ccc2-n2cc([C@H](O)CN)cn2)cc(-c2ccccc2Cl)n1 [compound 343, 4-[4-[(1S)-2-amino-1-hydroxyethyl]pyrazol-1-yl]-3-[6-(2-chlorophenyl)-2-methylpyrimidin-4-yl]oxybenzonitrile]
< 10	Cn1nc(C2CCC2)cc1Oc1cc(C#N)ccc1-c1ccc(CCN)cn1 [Compound 237, 4-[5-(2-aminoethyl)pyridin-2-yl]-3-(5-cyclobutyl-2-methylpyrazol-3-yl)oxybenzonitrile]
